Measurements: patent publication US7122550B2, “Protein kinase inhibitors” (Cytopia Pty Ltd, priority 2002, dated 2006)

Columns and labels:
Type in all cases: cell-based
Tel-Jak2 = target: T1, Tel-Jak2 (Homo sapiens, UniProt O60674); assay: Cellular growth inhibition assay (MTT), Tel-Jak2 transformed BaF3 cell line; settings: 40 hr incubation, read-out: Jak2: growth inhibitory activity (>50%) in transformed cell line Tel-Jak2
T1 construct: The regions encompassing the kinase domains of JAK2 (nucleotides 2994–3914); TEL (ETV6, human P41212) N-terminal part encoded by nucleotides 1-487 of TEL; expressed in transfected cells; host or cells: BaF3 (murine) bearing pTET-off, transfected with pTELJAK2 (pTRE2 vector); the other entry of the earlier key: ETV6 (P41212, Transcription factor ETV6)
T1 sequence (O60674 with tags, fused parts or gaps): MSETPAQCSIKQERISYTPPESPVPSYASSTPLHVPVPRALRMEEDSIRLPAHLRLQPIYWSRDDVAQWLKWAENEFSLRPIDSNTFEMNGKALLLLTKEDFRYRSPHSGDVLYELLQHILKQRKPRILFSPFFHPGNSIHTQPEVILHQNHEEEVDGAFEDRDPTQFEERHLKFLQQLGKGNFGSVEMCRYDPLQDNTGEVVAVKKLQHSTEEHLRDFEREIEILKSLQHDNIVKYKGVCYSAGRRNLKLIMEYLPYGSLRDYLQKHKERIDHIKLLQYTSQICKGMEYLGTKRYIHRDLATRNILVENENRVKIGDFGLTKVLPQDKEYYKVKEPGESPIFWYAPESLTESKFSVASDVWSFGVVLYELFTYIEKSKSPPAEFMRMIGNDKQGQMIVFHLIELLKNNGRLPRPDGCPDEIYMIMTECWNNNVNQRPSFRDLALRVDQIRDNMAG
From the text: (§1) The coding region encompassing nucleotides 1–487 of TELwas amplified by PCR using the oligonucleotides 5TEL (5′-GGAGGATCCTGATCTCTCTCGCTGTGAGAC-3′) and 3TEL (5′-AGGC GTCGACTTCTTCTTCATGGTTCTG-3′) and U937 mRNA as template. A BamHI site was present into the 5TEL Primer, a SalI site was incorporated into the 3TEL primer. The regions encompassing the kinase domains of JAK2 (nucleotides 2994–3914; JAK2F 5′-ACGC GTCGACGGTGCCTTTGAAGACCGGGAT-3′; JAK2R 5′-ATAGTTTAGCGGCCGCTCAGAATGAAGGTCATTT-3′) and JAK3 (nucleotides 2520–3469; JAK3F 5′-GAAGTCGACTATGCCTGCCAAGACCCCACGATCTT-3′; JAK3R 5′-GGATCTAGACTATGAAAAGGACAGGGAGTGGTGTTT-3′) were generated by PCR using Taq DNA Polymerase (Gibco/BRL) and U937 mRNA as template. A SalI site was incorporated into the forward primer of JAK2 and JAK3, a NotI site was incorporated into the JAK2 reverse primer and a Xba I site was added to the reverse primer of JAK3.
(§2) A TEL/Jak2 fusion was generated by digestion of the TELPCR product with BamHI/SalI, digestion of the JAK2 PCR product with SalI/NotI followed by ligation and subcloning into the mammalian expression Vector pTRE 2 (Clontech) digested with BamHI-NotI (pTELJAK2). For JAK3 SalI/NotI cleaved kinase domain PCR product was ligated with BamHI/SalI cleaved TELproduct followed by ligation into BamHI/NotI cleaved pTRE2 (pTELJAK3).
(§3) The growth factor dependent myelomonocytic cell line BaF3 bearing the pTET-off plasmid (Clontech) was transfected with either pTELJAK2 or pTELJAK3 and the cells selected for factor independent growth. BaF 3 wild type cells were cultured in DMEM 10% FCS, 10% WEHI 3B conditioned medium. BaF3 TELJAK cells were cultured in DMEM 10% Tet-System Approved FBS (without WEHI 3B conditioned medium).
(§4) Cell suspensions were prepared by harvesting cells from culture. (Cells used in this test should be in later log phase growth and high viability.) Cells were diluted in correct growth medium to 1.1×final concentration (from 50000 cell/mL to 200,000 cell/mL, depending on cell line).
(§5) Compounds to be tested were added (10 μL, 10×final concentration) to a flat bottom 96-well plate. The cellular suspension (90 μL per well) was added, and the plate incubated for 40 hr at 37° C., 5% CO2. MTT (20 μL per well, 5 mg/mL in PBS) was added and the plates were returned to the incubator for a further 6 hours. Lysis buffer (100 μL per well, 10% SDS, 0.01N HCl) was added and the plate stored in the incubator overnight. The plate was then read at 590 nm.

Tel-Jak3 = target: T2, Tel-Jak3 (Homo sapiens, UniProt P52333); assay: Cellular growth inhibition assay (MTT), Tel-Jak3 transformed BaF3 cell line; settings: 40 hr incubation, read-out: Jak3: growth inhibitory activity (>50%) in transformed cell line Tel-Jak3
T2 construct: TEL (ETV6, human P41212) N-terminal part encoded by nucleotides 1-487 of TEL; expressed in transfected cells; host or cells: BaF3 (murine) bearing pTET-off, transfected with pTELJAK3 (pTRE2 vector); the other entry of the earlier key: ETV6 (P41212, Transcription factor ETV6)
T2 sequence (P52333 with tags, fused parts or gaps): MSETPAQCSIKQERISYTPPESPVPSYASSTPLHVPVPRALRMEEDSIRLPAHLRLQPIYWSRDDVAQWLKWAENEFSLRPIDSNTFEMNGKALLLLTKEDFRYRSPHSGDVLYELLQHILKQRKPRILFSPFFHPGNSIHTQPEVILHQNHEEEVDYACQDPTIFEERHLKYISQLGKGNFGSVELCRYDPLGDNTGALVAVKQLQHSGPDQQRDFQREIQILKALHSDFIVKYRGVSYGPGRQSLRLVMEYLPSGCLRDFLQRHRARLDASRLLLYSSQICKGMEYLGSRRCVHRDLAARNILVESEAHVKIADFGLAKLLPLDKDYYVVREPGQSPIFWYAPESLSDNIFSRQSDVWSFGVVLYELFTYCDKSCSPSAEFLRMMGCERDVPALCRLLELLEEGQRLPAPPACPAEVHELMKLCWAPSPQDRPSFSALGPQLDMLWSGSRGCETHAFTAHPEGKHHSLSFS
From the text: as §1, §2, §3, §4, §5

DU145 = assay: Cellular growth inhibition assay (MTT), DU145 cells; settings: Homo sapiens, DU-145, 40 hr incubation, read-out: DU145: growth inhibitory activity
Procedure: as §4, §5

Structure (SMILES)	inhibition at 50 µM (Tel-Jak2) [%]	inhibition at 50 µM (Tel-Jak3) [%]	inhibition at 50 µM (DU145) [%]
COc1cc(-c2cncc(NC(C)c3ccc(C(=O)NCC4CC4)cc3)n2)ccc1O (stereo not shown) [Chemistry 354]	> 50	> 50	< 50
COc1cc(-c2cncc(NC(C)c3ccc(NC(=O)N4CCN(C)CC4)cc3)n2)ccc1O (stereo not shown) [Chemistry 283]	> 50	> 50	> 50
COc1cc(-c2cncc(NCc3cccnc3)n2)ccc1O [Chemistry 136]	> 50	> 50	> 50
C[C@H](Nc1cncc(-c2ccc(N)cc2)n1)c1ccccc1 [Chemistry 181]	> 50	> 50	< 50
CNC(=O)c1ccc(C(C)Nc2cncc(-c3ccc(O)c(OC)c3)n2)cc1 (stereo not shown) [Chemistry 370]	> 50	> 50	< 50
COc1cc(-c2cncc(N[C@@H](C)c3ccc4ccccc4c3)n2)ccc1O [Chemistry 155]	> 50	> 50	< 50
CCN(CC)CCOc1ccc(C(C)Nc2cncc(-c3ccc(O)c(OC)c3)n2)cc1 (stereo not shown) [Chemistry 285]	> 50	> 50	> 50
C[C@H](Nc1cncc(-c2ccc(NC(=O)C3CC3)cc2)n1)c1ccccc1 [Chemistry 193]	> 50	> 50	> 50
COc1cccc([C@H](C)Nc2cncc(-c3ccc(O)c(OC)c3)n2)c1 [Chemistry 158]	> 50	> 50	> 50
C[C@H](Nc1cncc(-c2ccc(F)c(Cl)c2)n1)c1ccccc1 [Chemistry 174]	> 50	> 50	< 50
C[C@H](Nc1cncc(-c2ccc(O)c(Cl)c2)n1)c1ccccc1 [Chemistry 175]	< 50	> 50	< 50
COc1cc(-c2cncc(NC(C)c3ccc(-c4ccccc4)cc3)n2)ccc1O (stereo not shown) [Chemistry 185]	> 50	> 50	< 50
COc1cc(-c2cncc(NC(C)c3ccc(-c4ccncc4)cc3)n2)ccc1O (stereo not shown) [Chemistry 266]	> 50	> 50	> 50
COc1cc(-c2cncc(NCc3ccco3)n2)ccc1O [Chemistry 141]	> 50	> 50	> 50
COc1cc(-c2cncc(N[C@H]3CCc4ccccc43)n2)ccc1O [Chemistry 68]	> 50	> 50	–
COc1cc(-c2cncc(NC(C)c3ccc(NC(=O)CN4CCN(C)CC4)cc3)n2)ccc1O (stereo not shown) [Chemistry 282]	> 50	> 50	> 50
COc1cc(-c2cncc(N[C@H]3CCCc4ccccc43)n2)ccc1O [Chemistry 87]	> 50	< 50	–
CC[C@H](Nc1cncc(-c2ccc(O)c(OC)c2)n1)c1ccccc1 [Chemistry 119]	> 50	> 50	> 50
COc1cc(-c2cncc(NC(C)c3cccc(NC(=O)C4CCCN4)c3)n2)ccc1O (stereo not shown) [Chemistry 267]	> 50	> 50	> 50
